# Experimental data published in ChEMBL document CHEMBL3045254, “Molecular modeling of the Toxoplasma gondii adenosine kinase inhibitors” (Med Chem Res, 2012).
# Biological target: T1, Adenosine kinase (Toxoplasma gondii, UniProt Q9TVW2)
# T1 sequence (Q9TVW2 whole entry): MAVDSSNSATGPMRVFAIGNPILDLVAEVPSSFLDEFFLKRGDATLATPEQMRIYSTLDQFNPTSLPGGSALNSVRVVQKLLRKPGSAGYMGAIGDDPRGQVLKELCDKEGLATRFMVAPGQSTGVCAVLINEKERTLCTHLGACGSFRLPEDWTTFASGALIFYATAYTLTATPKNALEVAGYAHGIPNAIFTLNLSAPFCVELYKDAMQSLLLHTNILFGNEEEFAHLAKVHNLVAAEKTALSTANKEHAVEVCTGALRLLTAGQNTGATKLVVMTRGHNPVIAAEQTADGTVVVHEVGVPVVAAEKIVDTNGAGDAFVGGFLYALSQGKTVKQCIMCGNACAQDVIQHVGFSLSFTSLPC
# Experiment: Inhibition of Toxoplasma gondii adenosine kinase
SMILES,IC50 (read-out: IC50) [µM],IC50 (read-out: pIC50 (converted)) [µM],Ki [µM]
OC[C@H]1O[C@@H](n2cnc3c(NCc4cccc(F)c4)ncnc32)[C@H](O)[C@@H]1O,23.2,,
OC[C@H]1O[C@@H](n2cnc3c(NCc4ccc(F)cc4)ncnc32)[C@H](O)[C@@H]1O,20.6,,
OC[C@H]1O[C@@H](n2cnc3c(NCc4ccc(Cl)cc4)ncnc32)[C@H](O)[C@@H]1O,25.8,,
COc1ccccc1CNc1ncnc2c1ncn2[C@@H]1O[C@H](CO)[C@@H](O)[C@H]1O,8.7,,
OC[C@H]1O[C@@H](n2cnc3c(NCc4ccc(C(F)(F)F)cc4)ncnc32)[C@H](O)[C@@H]1O,22.9,,
COc1ccc(CNc2ncnc3c2ncn3[C@@H]2O[C@H](CO)[C@@H](O)[C@H]2O)cc1,7.5,7.19,
OC[C@H]1O[C@@H](n2cnc3c(NCc4ccc(Cl)c(Cl)c4)ncnc32)[C@H](O)[C@@H]1O,14.3,,
COc1ccc(CNc2ncnc3c2ncn3[C@@H]2O[C@H](CO)[C@@H](O)[C@H]2O)c(OC)c1,8.7,,
OC[C@H]1O[C@@H](n2cnc3c(NCc4ccc(F)cc4F)ncnc32)[C@H](O)[C@@H]1O,8.2,,
N#Cc1ccc(CNc2ncnc3c2ncn3[C@@H]2O[C@H](CO)[C@@H](O)[C@H]2O)c(Cl)c1,21.1,10.4,
COc1ccc(CNc2ncnc3c2ncn3[C@@H]2O[C@H](CO)[C@@H](O)[C@H]2O)c(F)c1,9.5,,
CC(C)(C)c1ccc(CSc2ncnc3c2ncn3[C@@H]2O[C@H](CO)[C@@H](O)[C@H]2O)cc1,23.3,,113
OC[C@H]1O[C@@H](n2cnc3c(SCc4ccccc4Cl)ncnc32)[C@H](O)[C@@H]1O,6.7,,1.4
Cc1ccc(CSc2ncnc3c2ncn3[C@@H]2O[C@H](CO)[C@@H](O)[C@H]2O)cc1,7.8,,3.3
OC[C@H]1O[C@@H](n2cnc3c(NCc4ccccc4Cl)ncnc32)[C@H](O)[C@@H]1O,10.6,,
Cc1cccc(CNc2ncnc3c2ncn3[C@@H]2O[C@H](CO)[C@@H](O)[C@H]2O)c1,8.5,,
Cc1ccc(CNc2ncnc3c2ncn3[C@@H]2O[C@H](CO)[C@@H](O)[C@H]2O)cc1,10.5,,
OC[C@H]1O[C@@H](n2cnc3c(NCc4ccc(Cl)cc4Cl)ncnc32)[C@H](O)[C@@H]1O,9.3,,
OC[C@H]1O[C@@H](n2cnc3c(SCc4ccc(F)cc4)ncnc32)[C@H](O)[C@@H]1O,10.3,,1.2
OC[C@H]1O[C@@H](n2cnc3c(SCc4ccc(Br)cc4)ncnc32)[C@H](O)[C@@H]1O,14.3,,7.5
OC[C@H]1O[C@@H](n2cnc3c(SCc4ccc(OC(F)(F)F)cc4)ncnc32)[C@H](O)[C@@H]1O,24.8,,141

SMILES,IC50 (read-out: IC50) [µM],IC50 (read-out: pIC50 (converted)) [µM],Ki [µM]
OC[C@H]1O[C@@H](n2cnc3c(NCc4ccccc4F)ncnc32)[C@H](O)[C@@H]1O,37.8,,
Cc1ccccc1CSc1ncnc2c1ncn2[C@@H]1O[C@H](CO)[C@@H](O)[C@H]1O,7.7,,1.5
OC[C@H]1O[C@@H](n2cnc3c(SCc4ccc(Cl)c(Cl)c4)ncnc32)[C@H](O)[C@@H]1O,10.4,21.1,2.5
Cc1cccc(CSc2ncnc3c2ncn3[C@@H]2O[C@H](CO)[C@@H](O)[C@H]2O)c1,8.2,,1.3
OC[C@H]1O[C@@H](n2cnc3c(SCc4cccc(C(F)(F)F)c4)ncnc32)[C@H](O)[C@@H]1O,8.7,,2.9
OC[C@H]1O[C@@H](n2cnc3c(SCc4c(F)cccc4Cl)ncnc32)[C@H](O)[C@@H]1O,8.7,,37.7
OC[C@H]1O[C@@H](n2cnc3c(SCc4ccccc4F)ncnc32)[C@H](O)[C@@H]1O,8.2,,
Cc1cc(C)c(CSc2ncnc3c2ncn3[C@@H]2O[C@H](CO)[C@@H](O)[C@H]2O)c(C)c1,31.1,,150
OC[C@H]1O[C@@H](n2cnc3c(SCc4ccc(Cl)cc4)ncnc32)[C@H](O)[C@@H]1O,8.11,,2.1
COc1ccc(CSc2ncnc3c2ncn3[C@@H]2O[C@H](CO)[C@@H](O)[C@H]2O)cc1,3.5,,2.6
OC[C@H]1O[C@@H](n2cnc3c(SCc4ccc(Cl)cc4Cl)ncnc32)[C@H](O)[C@@H]1O,7.3,,0.7
O=[N+]([O-])c1cccc(CSc2ncnc3c2ncn3[C@@H]2O[C@H](CO)[C@@H](O)[C@H]2O)c1,6.2,,3
N#Cc1ccc(CSc2ncnc3c2ncn3[C@@H]2O[C@H](CO)[C@@H](O)[C@H]2O)cc1,4.3,,0.9
OC[C@H]1O[C@@H](n2cnc3c(SCc4ccccc4)ncnc32)[C@H](O)[C@@H]1O [6-BENZYLTHIOINOSINE],9.3,,2.4
OC[C@H]1O[C@@H](n2cnc3c(NCc4ccccc4)ncnc32)[C@H](O)[C@@H]1O [N6-BENZYLADENOSINE],,794,
O=[N+]([O-])c1ccc(CSc2ncnc3c2ncn3[C@@H]2O[C@H](CO)[C@@H](O)[C@H]2O)cc1 [NITROBENZYLMERCAPTOPURINE RIBONUCLEOSIDE],12,,1.1
O=[N+]([O-])c1ccccc1CNc1ncnc2c1ncn2[C@@H]1O[C@H](CO)[C@@H](O)[C@H]1O [O-NITRO-N6-BENZYLADENOSINE],15,,
CC(=O)Oc1ccc(CSc2ncnc3c2ncn3[C@@H]2O[C@H](CO)[C@@H](O)[C@H]2O)cc1 [P-ACETOXY-6-BENZYLTHIOINOSINE],15,,96.1
N#Cc1ccc(CNc2ncnc3c2ncn3[C@@H]2O[C@H](CO)[C@@H](O)[C@H]2O)cc1 [P-CYANO-N6-BENZYLADENOSINE],8.3,,
CC(C)c1ccc(CNc2ncnc3c2ncn3[C@@H]2O[C@H](CO)[C@@H](O)[C@H]2O)cc1 [P-ISOPROPYL-N6-BENZYLADENOSINE],22,,
C=Cc1ccc(CNc2ncnc3c2ncn3[C@@H]2O[C@H](CO)[C@@H](O)[C@H]2O)cc1 [P-VINYL-N6-BENZYLADENOSINE],26.2,,
